{
  "source": "patent US12514863B2",
  "about": "“Pharmaceutical combination and use thereof” (ASCENTAGE PHARMA (SUZHOU) CO., LTD., priority 2019, dated 2026)",
  "key": {"[1]": {"test_system": "ST-02-0103 HER2+Gastric cancer PDX", "test": "subcutaneous ST-02-0103 HER2+ gastric cancer PDX model", "type": "in vivo, mice", "method": "(§4) A subcutaneous xenograft tumor model of human tumor immunodeficient mice was established by cell inoculation: tumor cells in logarithmic growth phase were collected, counted, resuspended in 1×PBS, and the cell suspension concentration was adjusted to 2.5-5×10^7/mL. The tumor cells were inoculated subcutaneously in the right side of immunodeficient mice with a 1 mL syringe (4 gauge needle), 5-10×10^6/0.2 mL/mouse.\n(§5) Tumor volume (TV) is calculated as: TV=a×b^2/2, wherein a and b represent the length and width of the tumor to be measured, respectively.\n(§6) The relative tumor volume (RTV) is calculated as: RTV=Vt/V1, wherein V1 is the tumor volume at the start of grouping and administration, and Vt is the tumor volume measured on the t day after administration.\n(§7) Lapatinib: 100 mg/kg, PO, QD, for a total of 3 weeks,\n(§8) The dosing regimen of each drug in the dosing regimen for the combination is the same as the dosing regimen for the single drug."}, "[2]": {"test_system": "ST-02-0077 HER2+Gastric cancer PDX", "test": "subcutaneous ST-02-0077 HER2+ gastric cancer PDX model", "type": "in vivo, mice", "method": "as §4, §5, §6, §7, §8"}, "[3]": {"test_system": "MC38 syngeneic colon cancer", "test": "subcutaneous MC38 syngeneic colon cancer model (Example 82)", "type": "in vivo, mice", "description": "(§1) Body weight of animals were monitored simultaneously.\n(§2) Compound A: 50 mg/kg, PO, QD, for a total of 21 days,\nLenvatinib: 10 mg/kg, PO, QD, for a total of 21 days,\nAnti-PD-1: 5 mg/kg, I.P., BIW, for a total of 21 days, […]"}, "[4]": {"test_system": "MH-22A syngeneic liver cancer", "test": "subcutaneous MH-22A syngeneic liver cancer model (Example 74)", "type": "in vivo, mice", "description": "as §1, §2\nLenvatinib: 10 mg/kg, PO, QD, for a total of 21 days, […]"}, "MH-22A syngeneic tumors": {"test_system": "MH-22A syngeneic tumors", "test": "MH-22A syngeneic tumors, 5-day dosing (Example 76)", "type": "in vivo, mice", "description": "Compound A: 50 mg/kg, PO, QD, for a total of 5 days,\nLenvatinib: 10 mg/kg, PO, QD, for a total of 5 days,\nAnti-PD-1: 5 mg/kg, I.P., BIW, for a total of 5 days, […]"}, "[5]": {"test_system": "ER+ MCF-7 breast cancer xenograft", "test": "ER+ MCF-7 xenograft, palbociclib plus fulvestrant (Example 8)", "type": "in vivo, mice", "description": "(§3) Tumor volume (TV) is calculated as:"}, "[6]": {"test_system": "ER+ BR5496 breast cancer PDX", "test": "s.c. ER+ BR5496 breast PDX (tamoxifen-resistant)", "design": "species or system mice", "conditions": "mouse, in vivo", "description": "as §3"}, "[7]": {"test_system": "ER+ tamoxifen resistant MCF-7 breast cancer xenograft", "test": "ER+ tamoxifen resistant MCF-7 breast cancer xenograft", "design": "species or system mice", "conditions": "mouse, in vivo", "description": "as §3"}, "[8]": {"test_system": "ER+ MCF-7 breast cancer xenograft", "test": "s.c. ER+ MCF-7 breast cancer xenograft (Examples 7, 11, 27, 28, 44)", "type": "in vivo, mice"}, "DOHH2 xenograft": {"test_system": "DOHH2 xenograft", "test": "subcutaneous FL DOHH2 xenograft", "type": "in vivo, mice", "description": "as §3"}, "[9]": {"test_system": "primary multiple myeloma cells (CL-MM-001, CL-MM-003)", "test": "cell viability CTG assay, primary multiple myeloma cells", "type": "cell-based", "conditions": "MM sample CL-MM-003, 48 hrs; unit assumed", "description": "IC50 value was calculated using GraphPad Prism. […] CI<0.9 indicate a synergistic combination effect.\nMethods used include cell viability CTG assay."}, "[10]": {"conditions": "Cpd A 100 mg/kg, Lapatinib 100 mg/kg"}, "[11]": {"conditions": "Compound A 50 mg/kg, Lenvatinib 10 mg/kg, Anti-PD-1 5 mg/kg"}},
  "data": [
    {"smiles": "CS(=O)(=O)CCNCc1ccc(-c2ccc3ncnc(Nc4ccc(OCc5cccc(F)c5)c(Cl)c4)c3c2)o1", "note": "[Lapatinib, reference compound]", "values": [
      {"measurement": "RTV@D 21", "setting": "[1]; [10]", "result": "3.91 ± 1.00"},
      {"measurement": "T/C(%) @ D 21", "setting": "[1]; doses as E195", "result": 64.07, "unit": "%"},
      {"measurement": "RTV@D 21", "setting": "[2]; [10]", "result": "9.29 ± 0.53"},
      {"measurement": "T/C(%) @ D 21", "setting": "[2]; doses as E199", "result": 80.03, "unit": "%"}
    ]},
    {"smiles": "COc1cc2nccc(Oc3ccc(NC(=O)NC4CC4)c(Cl)c3)c2cc1C(N)=O", "note": "[Lenvatinib, reference compound]", "values": [
      {"measurement": "RTV@ D 22", "setting": "[3]; [11]", "result": "9.29 ± 1.60"},
      {"measurement": "T/C(%)@D 22", "setting": "[3]; doses as E233", "result": 24.59, "unit": "%"},
      {"measurement": "RTV @ D 15", "setting": "[4]; Compound A 50 mg/kg, Lenvatinib 10 mg/kg", "result": "12.94 ± 2.02"},
      {"measurement": "T/C (%) @ D 15", "setting": "[4]; doses as E217", "result": 39.29, "unit": "%"},
      {"measurement": "RTV @ D 5", "setting": "MH-22A syngeneic tumors; [11]", "result": "3.19 ± 0.18"},
      {"measurement": "T/C (%) @ D 5", "setting": "MH-22A syngeneic tumors; doses as E225", "result": 65.07, "unit": "%"}
    ]},
    {"smiles": "CC(=O)c1c(C)c2cnc(Nc3ccc(N4CCNCC4)cn3)nc2n(C2CCCC2)c1=O", "note": "[Palbociclib, reference compound]", "values": [
      {"measurement": "RTV@D 36", "setting": "[5]; Compound A 100 mg/kg, Palbociclib 20 mg/kg, Fulvestrant 20 mg/kg", "result": "3.4 ± 0.7"},
      {"measurement": "T/C(%)@D 36", "setting": "[5]; doses as E30", "result": 57.1, "unit": "%"},
      {"measurement": "RTV @ D 50", "setting": "[6]", "result": "3.43 ± 0.68"},
      {"measurement": "T/C (%) @ D 50", "setting": "[6]", "result": 78.01, "unit": "%"},
      {"measurement": "RTV @ D 25", "setting": "[7]", "result": "4.86 ± 0.71"},
      {"measurement": "T/C (%) @ D 25", "setting": "[7]", "result": 83.86, "unit": "%"},
      {"measurement": "RTV@D 36", "setting": "[8]; doses as E21", "result": "2.9 ± 0.8"},
      {"measurement": "T/C(%)@D 22", "setting": "[8]; doses as E21", "result": 39.3, "unit": "%"},
      {"measurement": "T/C(%)@D 36", "setting": "[8]; doses as E21", "result": 44.2, "unit": "%"}
    ]},
    {"smiles": "CC/C(=C(\\c1ccccc1)c1ccc(OCCN(C)C)cc1)c1ccccc1", "note": "[Tamoxifen]", "values": [
      {"measurement": "RTV@ D 22", "setting": "[8]; Compound A 100 mg/kg, Palbociclib 50 mg/kg, Tamoxifen 3 or 1 mg/kg, Compound B 50 mg/kg", "result": "0.7 ± 0.3"},
      {"measurement": "ORR", "setting": "[8]; doses as E21", "result": 66.7, "unit": "%"},
      {"measurement": "RTV@D 36", "setting": "[8]; doses as E21", "result": "1.4 ± 0.8"},
      {"measurement": "T/C(%)@D 22", "setting": "[8]; doses as E21", "result": 20.4, "unit": "%"},
      {"measurement": "T/C(%)@D 36", "setting": "[8]; doses as E21", "result": 22.0, "unit": "%"}
    ]},
    {"smiles": "CC[C@H](Nc1ncnc2[nH]cnc12)c1nc2cccc(F)c2c(=O)n1-c1ccccc1", "note": "[idelalisib, reference compound]", "values": [
      {"measurement": "RTV@D 21", "setting": "DOHH2 xenograft; Compound A 50 mg/kg, qd, po, idelalisib 15 mg/kg, bid", "result": "10.7 ± 0.95"},
      {"measurement": "T/C(%) @211", "setting": "DOHH2 xenograft; doses as E51", "result": 75.8, "unit": "%"}
    ]},
    {"smiles": "Nc1cccc2c1CN(C1CCC(=O)NC1=O)C2=O", "note": "(stereo not shown) [lenalidomide]", "values": [
      {"measurement": "quantified cell viability", "setting": "[9]", "result": 72.4, "unit": "%"}
    ]},
    {"smiles": "Nc1cccc2c1C(=O)N(C1CCC(=O)NC1=O)C2=O", "note": "(stereo not shown) [pomalodomide]", "values": [
      {"measurement": "quantified cell viability", "setting": "[9]", "result": 63.4, "unit": "%"}
    ]}
  ]
}
